Laboratory results: US10351575B2, “Bicyclic urea, thiourea, guanidine and cyanoguanidine compounds useful for the treatment of pain” (Array BioPharma Inc., priority 2012, dated 2019)

Tests used:
Assay in all cases: KinaseProfiler off-target kinase profiling
Format in all cases: biochemical
Conditions in all cases: 10 μM, ATP near Km
TNK2 = TNK2 (Homo sapiens (Human), UniProt Q07912)
How it was run: (§1)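 Near-Km ATP, 10 μM inhibitor, duplicate wells; output is percent of uninhibited control, averaged.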

HIPK1 = HIPK1 (Homo sapiens (Human), UniProt Q86Z02)
How it was run: as §1

KIT = KIT (Homo sapiens (Human), UniProt P10721)
How it was run: as §1

PRK2 = PRK2 (Homo sapiens (Human), UniProt Q16513)
How it was run: as §1

CDK5/p25 = CDK5/p25 (Homo sapiens (Human), UniProt Q00535)
How it was run: as §1

TAO2 = TAO2 (Homo sapiens (Human), UniProt Q9UL54)
How it was run: as §1

TrkA = TrkA (Homo sapiens (Human), UniProt P04629)
How it was run: as §1

PAK2 = PAK2 (Homo sapiens (Human), UniProt Q13177)
How it was run: as §1

PKCeta = PKCeta (Homo sapiens (Human), UniProt P24723)
How it was run: as §1

PRKG1alpha = PRKG1alpha (Homo sapiens (Human), UniProt Q13976)
How it was run: as §1

PKCbetaII = PKCbetaII (Homo sapiens (Human), UniProt P05771)
How it was run: as §1

MARK2 = MARK2 (Homo sapiens (Human), UniProt Q7KZI7)
How it was run: as §1

PKCalpha = PKCalpha (Homo sapiens (Human), UniProt P17252)
How it was run: as §1

SGK1 = SGK1 (Homo sapiens (Human), UniProt O00141)
How it was run: as §1

CDK1/cyclinB = CDK1/cyclinB (Homo sapiens (Human), UniProt P06493)
How it was run: as §1

PKCdelta = PKCdelta (Homo sapiens (Human), UniProt Q05655)
How it was run: as §1

FAK2 = FAK2 (Homo sapiens (Human), UniProt Q14289)
How it was run: as §1

VRK2 = VRK2 (Homo sapiens (Human), UniProt Q86Y07)
How it was run: as §1

CDK3/cyclinE = CDK3/cyclinE (Homo sapiens (Human), UniProt Q00526)
How it was run: as §1

SGK2 = SGK2 (Homo sapiens (Human), UniProt Q9HBY8)
How it was run: as §1

PAK4 = PAK4 (Homo sapiens (Human), UniProt O96013)
How it was run: as §1

AKT3 = AKT3 (Homo sapiens (Human), UniProt Q9Y243)
How it was run: as §1

PKD1 = PKD1 (Homo sapiens (Human), UniProt Q15139)
How it was run: as §1

Fgr = Fgr (Homo sapiens (Human), UniProt P09769)
How it was run: as §1

Ros = Ros (Homo sapiens (Human), UniProt P08922)
How it was run: as §1

ErbB4 = ErbB4 (Homo sapiens (Human), UniProt Q15303)
How it was run: as §1

ITK = ITK (Homo sapiens (Human), UniProt Q08881)
How it was run: as §1

PhKgamma2 = PhKgamma2 (Homo sapiens (Human), UniProt P15735)
How it was run: as §1

PKCgamma = PKCgamma (Homo sapiens (Human), UniProt P05129)
How it was run: as §1

PAK5 = PAK5 (Homo sapiens (Human), UniProt Q9P286)
How it was run: as §1

CDK2/cyclinE = CDK2/cyclinE (Homo sapiens (Human), UniProt P24941)
How it was run: as §1

Plk2 = Plk2 (Homo sapiens (Human), UniProt Q9NYY3)
How it was run: as §1

Lck = Lck (Homo sapiens (Human), UniProt P06239)
How it was run: as §1

PKCbetaI = PKCbetaI (Homo sapiens (Human), UniProt P05771)
How it was run: as §1

Rse = Rse (Homo sapiens (Human), UniProt Q06418)
How it was run: as §1

AKT1 = AKT1 (Homo sapiens (Human), UniProt P31749)
How it was run: as §1

Plk3 = Plk3 (Homo sapiens (Human), UniProt Q9H4B4)
How it was run: as §1

SGK3 = SGK3 (Homo sapiens (Human), UniProt Q96BR1)
How it was run: as §1

Fms = Fms (Homo sapiens (Human), UniProt P07333)
How it was run: as §1

MARK2, sequence (Q7KZI7 whole entry): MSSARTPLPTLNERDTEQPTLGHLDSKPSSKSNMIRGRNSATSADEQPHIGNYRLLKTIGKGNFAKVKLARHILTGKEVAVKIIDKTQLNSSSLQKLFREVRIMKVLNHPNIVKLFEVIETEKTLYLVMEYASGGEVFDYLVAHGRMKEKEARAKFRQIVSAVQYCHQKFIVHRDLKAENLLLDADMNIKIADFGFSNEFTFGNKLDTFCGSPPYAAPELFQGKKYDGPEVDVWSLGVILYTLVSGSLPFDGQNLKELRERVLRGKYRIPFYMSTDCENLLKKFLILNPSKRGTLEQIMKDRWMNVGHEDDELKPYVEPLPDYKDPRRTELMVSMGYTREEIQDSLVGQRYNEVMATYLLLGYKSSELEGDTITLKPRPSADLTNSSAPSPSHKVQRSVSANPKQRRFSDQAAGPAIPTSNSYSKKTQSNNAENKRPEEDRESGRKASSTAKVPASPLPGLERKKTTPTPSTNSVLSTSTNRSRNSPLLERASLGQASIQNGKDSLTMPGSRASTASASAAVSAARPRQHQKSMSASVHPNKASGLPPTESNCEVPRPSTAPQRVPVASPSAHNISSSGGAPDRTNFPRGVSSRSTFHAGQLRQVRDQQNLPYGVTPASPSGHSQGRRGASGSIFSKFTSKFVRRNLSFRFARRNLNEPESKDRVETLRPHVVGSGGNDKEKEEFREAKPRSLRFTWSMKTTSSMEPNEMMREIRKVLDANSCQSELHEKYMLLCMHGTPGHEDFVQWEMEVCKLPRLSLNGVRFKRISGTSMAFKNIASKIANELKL
VRK2, sequence (Q86Y07 whole entry): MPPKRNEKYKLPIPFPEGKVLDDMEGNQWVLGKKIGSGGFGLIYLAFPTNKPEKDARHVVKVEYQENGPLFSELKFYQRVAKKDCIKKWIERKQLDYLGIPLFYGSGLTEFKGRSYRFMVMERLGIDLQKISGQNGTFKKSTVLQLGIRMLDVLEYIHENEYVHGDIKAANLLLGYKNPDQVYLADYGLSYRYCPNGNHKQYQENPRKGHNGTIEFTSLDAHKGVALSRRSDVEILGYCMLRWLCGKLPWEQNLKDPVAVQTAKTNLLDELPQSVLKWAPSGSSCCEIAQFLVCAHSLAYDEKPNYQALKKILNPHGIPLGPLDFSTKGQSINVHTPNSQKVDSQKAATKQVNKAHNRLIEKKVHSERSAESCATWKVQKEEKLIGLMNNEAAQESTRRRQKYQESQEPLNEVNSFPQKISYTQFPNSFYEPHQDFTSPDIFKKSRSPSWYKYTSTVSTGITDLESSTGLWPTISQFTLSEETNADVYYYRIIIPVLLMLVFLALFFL
TAO2, sequence (Q9UL54 whole entry): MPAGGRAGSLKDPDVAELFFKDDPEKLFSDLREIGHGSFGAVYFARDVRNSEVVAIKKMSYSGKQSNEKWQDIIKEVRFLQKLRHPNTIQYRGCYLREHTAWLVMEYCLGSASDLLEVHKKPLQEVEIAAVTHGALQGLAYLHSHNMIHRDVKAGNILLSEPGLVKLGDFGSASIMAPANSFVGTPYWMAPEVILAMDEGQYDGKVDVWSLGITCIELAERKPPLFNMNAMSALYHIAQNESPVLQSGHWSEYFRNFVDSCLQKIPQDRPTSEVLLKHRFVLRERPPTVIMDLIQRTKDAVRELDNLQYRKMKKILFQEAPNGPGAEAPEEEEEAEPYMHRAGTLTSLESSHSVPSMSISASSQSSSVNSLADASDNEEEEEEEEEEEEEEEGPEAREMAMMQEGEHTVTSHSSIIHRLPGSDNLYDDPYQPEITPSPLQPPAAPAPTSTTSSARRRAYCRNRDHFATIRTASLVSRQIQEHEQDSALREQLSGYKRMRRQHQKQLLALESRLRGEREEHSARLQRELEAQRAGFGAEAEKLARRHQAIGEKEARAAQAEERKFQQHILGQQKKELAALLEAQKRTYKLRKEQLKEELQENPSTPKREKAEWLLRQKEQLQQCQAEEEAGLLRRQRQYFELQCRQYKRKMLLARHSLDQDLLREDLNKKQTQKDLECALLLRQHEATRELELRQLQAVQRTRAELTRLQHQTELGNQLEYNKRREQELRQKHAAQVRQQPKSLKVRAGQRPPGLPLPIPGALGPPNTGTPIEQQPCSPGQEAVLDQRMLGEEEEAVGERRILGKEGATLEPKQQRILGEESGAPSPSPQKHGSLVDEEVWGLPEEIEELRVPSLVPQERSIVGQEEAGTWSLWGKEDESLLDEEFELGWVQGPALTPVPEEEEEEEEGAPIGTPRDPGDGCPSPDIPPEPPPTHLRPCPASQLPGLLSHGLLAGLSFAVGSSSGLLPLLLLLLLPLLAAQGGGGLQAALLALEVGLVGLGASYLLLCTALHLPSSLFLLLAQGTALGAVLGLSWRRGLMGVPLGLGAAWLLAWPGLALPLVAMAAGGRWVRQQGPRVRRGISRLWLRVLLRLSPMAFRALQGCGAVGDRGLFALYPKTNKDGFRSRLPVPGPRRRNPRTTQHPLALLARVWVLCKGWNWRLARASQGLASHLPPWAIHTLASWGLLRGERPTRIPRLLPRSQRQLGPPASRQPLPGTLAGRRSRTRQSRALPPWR
PAK2, sequence (Q13177 whole entry): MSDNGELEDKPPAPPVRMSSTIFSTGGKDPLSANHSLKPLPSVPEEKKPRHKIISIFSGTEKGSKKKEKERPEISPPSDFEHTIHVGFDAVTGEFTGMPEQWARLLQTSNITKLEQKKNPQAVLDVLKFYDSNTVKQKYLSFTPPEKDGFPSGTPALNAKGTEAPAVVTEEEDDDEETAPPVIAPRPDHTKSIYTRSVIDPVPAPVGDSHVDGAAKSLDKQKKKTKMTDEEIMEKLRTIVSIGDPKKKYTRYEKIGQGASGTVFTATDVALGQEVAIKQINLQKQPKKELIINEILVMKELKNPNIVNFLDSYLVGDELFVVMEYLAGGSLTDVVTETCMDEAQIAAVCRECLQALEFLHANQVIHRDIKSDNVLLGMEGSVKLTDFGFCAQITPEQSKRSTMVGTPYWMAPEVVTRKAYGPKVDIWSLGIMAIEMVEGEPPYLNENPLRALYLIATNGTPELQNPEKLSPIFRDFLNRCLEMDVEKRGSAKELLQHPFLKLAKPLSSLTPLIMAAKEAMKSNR
AKT3, sequence (Q9Y243 whole entry): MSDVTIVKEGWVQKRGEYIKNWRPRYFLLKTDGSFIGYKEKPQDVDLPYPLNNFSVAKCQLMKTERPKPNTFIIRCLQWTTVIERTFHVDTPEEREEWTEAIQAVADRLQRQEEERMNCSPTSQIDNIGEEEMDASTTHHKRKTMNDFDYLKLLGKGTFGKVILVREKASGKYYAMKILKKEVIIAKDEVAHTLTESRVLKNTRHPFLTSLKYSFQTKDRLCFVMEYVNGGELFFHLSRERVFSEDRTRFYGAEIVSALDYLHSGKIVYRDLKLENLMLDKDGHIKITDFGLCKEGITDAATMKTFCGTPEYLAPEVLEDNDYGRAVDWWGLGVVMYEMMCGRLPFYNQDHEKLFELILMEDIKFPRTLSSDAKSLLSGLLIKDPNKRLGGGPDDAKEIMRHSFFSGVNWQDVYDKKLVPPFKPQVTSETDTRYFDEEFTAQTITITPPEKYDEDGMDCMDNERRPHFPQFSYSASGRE
AKT1, sequence (P31749 whole entry): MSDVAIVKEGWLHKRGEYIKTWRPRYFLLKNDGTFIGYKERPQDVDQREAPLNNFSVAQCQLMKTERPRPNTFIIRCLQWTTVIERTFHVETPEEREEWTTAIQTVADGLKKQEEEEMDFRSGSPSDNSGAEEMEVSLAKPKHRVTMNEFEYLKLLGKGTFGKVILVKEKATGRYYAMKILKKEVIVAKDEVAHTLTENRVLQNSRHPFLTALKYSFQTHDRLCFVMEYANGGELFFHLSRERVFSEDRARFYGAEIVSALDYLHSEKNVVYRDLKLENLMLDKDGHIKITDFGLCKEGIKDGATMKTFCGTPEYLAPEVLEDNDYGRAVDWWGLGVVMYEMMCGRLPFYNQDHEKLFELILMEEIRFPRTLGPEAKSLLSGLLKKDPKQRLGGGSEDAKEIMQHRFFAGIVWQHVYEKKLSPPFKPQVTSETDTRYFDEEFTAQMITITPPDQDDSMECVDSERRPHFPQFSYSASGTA

Row | SMILES | Avg. POC (TNK2) | Avg. POC (HIPK1) | Avg. POC (KIT) | Avg. POC (PRK2) | Avg. POC (CDK5/p25) | Avg. POC (TAO2) | Avg. POC (TrkA) | Avg. POC (PAK2) | Avg. POC (PKCeta) | Avg. POC (PRKG1alpha) | Avg. POC (PKCbetaII) | Avg. POC (MARK2) | Avg. POC (PKCalpha) | Avg. POC (SGK1) | Avg. POC (CDK1/cyclinB) | Avg. POC (PKCdelta) | Avg. POC (FAK2) | Avg. POC (VRK2) | Avg. POC (CDK3/cyclinE) | Avg. POC (SGK2) | also measured
1 | Cc1c(-c2cnn(C)c2)nn(-c2ccccc2)c1NC(=O)N[C@H]1CCCc2ccccc21 [Example 2, (S)-1-(1′,4-dimethyl-1-phenyl-1H,1′H-3,4′-bipyrazol-5-yl)-3-(1,2,3,4-tetrahydronaphthalen-1-yl)urea] | 100.5 POC | 97 POC | 104 POC | 128 POC | 107.5 POC | 110 POC | 1.5 POC | 104 POC | 107 POC | 127.5 POC | 95.5 POC | 109 POC | 96 POC | 150 POC | 122.5 POC | 95 POC | 120 POC | 109 POC | 105.5 POC | 166.5 POC | Avg. POC (PAK4): 95 POC; Avg. POC (AKT3): 116.5 POC; Avg. POC (PKD1): 110.5 POC; Avg. POC (Fgr): 131 POC; Avg. POC (Ros): 106.5 POC; Avg. POC (ErbB4): 148 POC; Avg. POC (ITK): 117.5 POC; Avg. POC (PhKgamma2): 113 POC; Avg. POC (PKCgamma): 102 POC; Avg. POC (PAK5): 109.5 POC; Avg. POC (CDK2/cyclinE): 116.5 POC; Avg. POC (Plk2): 102 POC; Avg. POC (Lck): 97.5 POC; Avg. POC (PKCbetaI): 99 POC; Avg. POC (Rse): 109 POC; Avg. POC (AKT1): 130.5 POC; Avg. POC (Plk3): 103 POC; Avg. POC (SGK3): 137.5 POC; Avg. POC (Fms): 82 POC
2 | Cc1c(-c2cnn(C)c2)nn(-c2ccccc2)c1NC(=O)NC1CCOc2cc(F)ccc21 (stereo not drawn) [Example 12, 1-(1′,4-dimethyl-1-phenyl-1H,1′H-[3,4′-bipyrazol]-5-yl)-3-(7-fluorochroman-4-yl)urea] | 117.5 POC | 102.5 POC | 102.5 POC | 97.5 POC | 104 POC | 121 POC | −0.5 POC | 97 POC | 100 POC | 89.5 POC | 100 POC | 105.5 POC | 104 POC | 129 POC | 107.5 POC | 97.5 POC | 111 POC | 95 POC | 98.5 POC | 148 POC | Avg. POC (PAK4): 103 POC; Avg. POC (AKT3): 94 POC; Avg. POC (PKD1): 115 POC; Avg. POC (Fgr): 114.5 POC; Avg. POC (Ros): 97.5 POC; Avg. POC (ErbB4): 122 POC; Avg. POC (ITK): 114.5 POC; Avg. POC (PhKgamma2): 110 POC; Avg. POC (PKCgamma): 104.5 POC; Avg. POC (PAK5): 143 POC; Avg. POC (CDK2/cyclinE): 96.5 POC; Avg. POC (Plk2): 103.5 POC; Avg. POC (Lck): 92 POC; Avg. POC (PKCbetaI): 93.5 POC; Avg. POC (Rse): 106 POC; Avg. POC (AKT1): 105.5 POC; Avg. POC (Plk3): 115 POC; Avg. POC (SGK3): 143.5 POC; Avg. POC (Fms): 91 POC
3 | Cc1c(-c2ccc(=O)n(C)c2)nn(-c2ccccc2)c1NC(=O)NC1CN(CC(F)(F)F)Cc2ccccc21 (stereo not drawn) [Example 26, 1-(4-methyl-3-(1-methyl-6-oxo-1,6-dihydropyridin-3-yl)-1-phenyl-1H-pyrazol-5-yl)-3-(2-(2,2,2-trifluoroethyl)-1,2,3,4-tetrahydroisoquinolin-4-yl)urea] | 123 POC | 111 POC | 94 POC | 110.5 POC | 109 POC | 111 POC | 0.5 POC | 99.5 POC | 98 POC | 98 POC | 99 POC | 102.5 POC | 107.5 POC | 97.5 POC | 103 POC | 105 POC | 104.5 POC | 98 POC | 101.5 POC | 123.5 POC | Avg. POC (PAK4): 100.5 POC; Avg. POC (AKT3): 96 POC; Avg. POC (PKD1): 113.5 POC; Avg. POC (Fgr): 114.5 POC; Avg. POC (Ros): 106.5 POC; Avg. POC (ErbB4): 115.5 POC; Avg. POC (ITK): 122 POC; Avg. POC (PhKgamma2): 108.5 POC; Avg. POC (PKCgamma): 99 POC; Avg. POC (PAK5): 121.5 POC; Avg. POC (CDK2/cyclinE): 97.5 POC; Avg. POC (Plk2): 101.5 POC; Avg. POC (Lck): 96.5 POC; Avg. POC (PKCbetaI): 89 POC; Avg. POC (Rse): 109.5 POC; Avg. POC (AKT1): 100 POC; Avg. POC (Plk3): 119 POC; Avg. POC (SGK3): 104 POC; Avg. POC (Fms): 96 POC
4 | COCc1ccc2c(c1)C(NC(=O)Nc1c(C)c(-c3cnn(C)c3)nn1-c1ccccc1)COC2 (stereo not drawn) [Example 32, 1-(1′,4-dimethyl-1-phenyl-1H,1′H-[3,4′-bipyrazol]-5-yl)-3-(6-(methoxymethyl)isochroman-4-yl)urea] | 132 POC | 115 POC | 94.5 POC | 99.5 POC | 106 POC | 104 POC | 0 POC | 108.5 POC | 111.5 POC | 84 POC | 100.5 POC | 107.5 POC | 110 POC | 119 POC | 104 POC | 99 POC | 101.5 POC | 100.5 POC | 102.5 POC | 123.5 POC | Avg. POC (PAK4): 98 POC; Avg. POC (AKT3): 77.5 POC; Avg. POC (PKD1): 98.5 POC; Avg. POC (Fgr): 109.5 POC; Avg. POC (Ros): 97.5 POC; Avg. POC (ErbB4): 108.5 POC; Avg. POC (ITK): 124 POC; Avg. POC (PhKgamma2): 102.5 POC; Avg. POC (PKCgamma): 104 POC; Avg. POC (PAK5): 111 POC; Avg. POC (CDK2/cyclinE): 106 POC; Avg. POC (Plk2): 103 POC; Avg. POC (Lck): 104.5 POC; Avg. POC (PKCbetaI): 80 POC; Avg. POC (Rse): 105 POC; Avg. POC (AKT1): 92 POC; Avg. POC (Plk3): 103.5 POC; Avg. POC (SGK3): 134 POC; Avg. POC (Fms): 102 POC
